The values below come from patent publication US11306102B2, “1,3-di-substituted ketene compound and application thereof” (BEBETTER MED INC., priority 2017, dated 2022).

One data set addresses T1, PPARδ (Homo sapiens, UniProt Q03181).
T1 construct: expressed in transfected cells; host or cells: Hela cells
T1 sequence (Q03181 1-441): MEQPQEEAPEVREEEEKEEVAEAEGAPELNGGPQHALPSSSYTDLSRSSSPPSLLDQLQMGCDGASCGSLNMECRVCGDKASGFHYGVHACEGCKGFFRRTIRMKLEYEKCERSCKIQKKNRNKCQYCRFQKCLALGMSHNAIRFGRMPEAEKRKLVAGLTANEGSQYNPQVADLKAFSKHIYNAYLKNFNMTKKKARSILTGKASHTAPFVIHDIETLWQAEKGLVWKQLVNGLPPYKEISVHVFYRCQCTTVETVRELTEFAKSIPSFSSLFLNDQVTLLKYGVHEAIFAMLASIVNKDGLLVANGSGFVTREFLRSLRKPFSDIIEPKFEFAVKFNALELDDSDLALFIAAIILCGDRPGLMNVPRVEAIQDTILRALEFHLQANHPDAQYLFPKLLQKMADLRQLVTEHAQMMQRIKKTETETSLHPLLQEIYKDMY
In words: Hela cell/luciferase reporter gene method, PPARδ agonist activity. Type of data set: cell-based. The note with it: for EC50: Hela cells, pPPRE3-TK-Luciferase reporter, 24 hrs incubation, read-out: agonistic activity on PPARδ (EC50). The protocol:
This example measures the biological activity of a PPAR agonist using the Hela cell/luciferase reporter gene method.
The target plasmids PCMV PPARα (Ampicillin+), PCMV PPARγ (Ampicillin+), PCMV PPARδ (Ampicillin+), and pPPRE3-TK-Luciferase (Ampicillin+) were introduced into DH5a competent cells by heat shock treatment, respectively. After being incubated for 1 hour at 37° C. with shaking (180 rpm), the cells were inoculated on LB agar solid medium containing antibiotic Ampicillin, and invertedly cultured at 37° C. for 12-16 hours. Then the monoclonal colony cultured on the medium was taken and inoculated into LB liquid medium for expanded culture. […] The plasmid obtained by centrifugation was suspended in TE buffer, and the plasmid concentration was measured and the mixture was stored at −20° C. Hela cells in the exponential phase were seeded in 6-well plates (8-10^5 cells/well), and after 6-8 hours of culture, the cells were transfected using Lipofectamine® 3000 Transfection Reagent (Invitrogen; #L3000015). A plasmid containing a PPAR binding site (peroxisome proliferator response element, PPRE) and a firefly luciferase gene (pPPRE3-TK-Luciferase) and PPAR expression vector were co-transfected into a Hela cell with a total amount of plasmid DNA of 2.5 ug (the mass ratio of each PPAR expression vector is pPPRE:PPARα=6:1, pPPRE:PPARδ=8:1, and pPPRE:PPARγ=2:1) to construct a drug screening cell model for PPAR agonists. PPAR was binded to the ligand and then binded to the peroxisome proliferator response element (PPRE), thereby initiating downstream firefly luciferase expression and its expression intensity was directly proportional to the degree of PPAR activation. The cells after 24 hours transfection were prepared into a cell suspension with a cell concentration of […] by a complete culture solution, and seeded into a 96-well plate with 100 ul per well. After overnight culture, the medium was changed to a medium containing 1% FBS. 10 mM candidate compound stock (1000×) were 4-fold diluted in DMSO for 8 points, then supplemented with medium containing 1% FBS to a final concentration of 50 uM (5×) by addition of 25 μl of 5× compound diluent to each well in different concentration gradients and incubated under 37° C., 5% CO2 incubator for 24 hrs. The 96-well plate was taken out and 30 μl of Bright-Glo™ Luciferase Assay System (Promega #E2620) was added to each well. The Luciferase luminescence intensity was measured by a SynergyH1 full-function microplate detector. The obtained data was used to calculate EC50 using GraphPad Prism 5.0 software to determine the biological activity of the compound.

The nature of data set [1]: Pharmacokinetic (PK) experiments after intragastric administration in rats. Type of data set: in vivo, SD rats. The following applies: for AUC(0-inf) / AUC(0-t) / Cmax / Tmax / half-life: male, SD, rat, plasma, po, intragastric administration 20 mg/kg; for half-life: read-out: Terminal T1/2 (converted). As to the method: Male SD rats, weighing 250-300 grams, were fasted overnight before testing. The test compound was dissolved in 30% sulfobutyl-R-cyclodextrin (SBE-β-CD) and administered intragastrically at a dose of 20 mg/kg. Blood was collected 15 minutes, 30 minutes, and 1, 2, 3, 4, […] and 24 hours after the administration. About 0.3 ml of blood was collected at each time point, placed in a centrifuge tube containing K2-EDTA (dipotassium ethylenediamine tetraacetate) and centrifuged (2,000 g, 10 minutes, 4° C.) to take the plasma, which was stored in an ultra-low temperature refrigerator at −80° C. A 50 μL plasma sample was mixed with 5 μl of internal standard (IS) and extracted with ethyl acetate. The residue was redissolved in acetonitrile after drying under vacuum. The sample was filtered and injected into an LC-MS/MS for analysis.

Broadly, the EC50 is the concentration at which the effect is half-maximal. A word on the AUC(0-inf): it is total exposure, with the tail of the curve extrapolated. Read a high AUC(0-inf) as more exposure. One may read the AUC(0-t) as exposure summed from dosing to a finite time, without extrapolation to infinity. The low end stands for less exposure, the high end for more exposure. What is called Cmax is the highest concentration seen after dosing. The term Tmax denotes the time from dosing to the highest level. In the case of `CSc1ccc(C(=O)/C=C/c2cc(C)c(OC(C)(C)C(=O)O)c(C)c2)c2occc12` [Compound 5, (E)-2-(2,6-dimethyl-4-(3-(4-(methylthio)benzofuran-7-yl)-3-oxoprop-1-en-1-yl)phenoxy)-2-methylpropanoic acid], the EC50 at PPARδ is 36 nM. Moreover, in data set [1], the area under the curve AUC(0-inf) came to 3240 ng·h/mL, the AUC(0-t) was 3110 ng·h/mL, the Cmax is 2850 ng/mL and the Tmax worked out at 0.25 h. Also, in data set [1], the half-life was 12.3 h, the “absorption after oral administration compared with Elafibranor (in words)” value was “good absorption”, the “blood exposure after oral administration compared with Elafibranor (in words)” value is “highly effective blood exposure” and the “half-life after oral administration compared with Elafibranor (in words)” value (from here on “half-life … compared with Elafibranor (in words)”) is reported as “significantly prolonged half-life”.

`CCSc1ccc(C(=O)/C=C/c2cc(C)c(OC(C)(C)C(=O)O)c(C)c2)c2occc12` [Compound 6, (E)-2-(4-(3-(4-(ethylthio)benzofuran-7-yl)-3-oxoprop-1-en-1-yl)-2,6-dimethylphenoxy)-2-methylpropanoic acid]: the EC50 at PPARδ was found to be 119 nM.

With `CSc1ccc(C(=O)/C=C/c2cc(C)c(OC(C)(C)C(=O)O)c(C)c2)c2ccoc12` [Compound 27, (E)-2-(2,6-dimethyl-4-(3-(7-(methylthio)benzofuran-4-yl)-3-oxoprop-1-en-1-yl)phenoxy)-2-methylpropanoic acid], the EC50 at PPARδ stood at 604 nM.

Regarding `Cc1cc(/C=C/C(=O)c2ccc3c(c2)CCS3)cc(C)c1OC(C)(C)C(=O)O` [Compound 36, (E)-2-(4-(3-(2,3-dihydrobenzo[b]thiophen-5-yl)-3-oxoprop-1-en-1-yl)-2,6-dimethylphenoxy)-2-methylpropanoic acid], on PPARδ, the EC50 was determined as 120 nM. In data set [1], the AUC(0-inf) worked out at 3380 ng·h/mL, the AUC(0-t) was determined as 3340 ng·h/mL, the concentration peaked (Cmax) at 2740 ng/mL and the Tmax turned out to be 0.38 h. For the same compound, in data set [1], the half-life was 6.42 h, the “absorption after oral administration compared with Elafibranor (in words)” value was “good absorption”, the “blood exposure after oral administration compared with Elafibranor (in words)” value is on record as “highly effective blood exposure” and the “half-life … compared with Elafibranor (in words)” value is reported as “significantly prolonged half-life”.

For `COc1ccc2cc(C(=O)/C=C/c3cc(C)c(OC(C)(C)C(=O)O)c(C)c3)oc2c1` [Compound 43, (E)-2-(4-(3-(6-methoxybenzofuran-2-yl)-3-oxoprop-1-en-1-yl)-2,6-dimethylphenoxy)-2-methylpropanoic acid], the EC50 at PPARδ came out at 335 nM. In addition, in data set [1], the AUC(0-inf) was 1580 ng·h/mL, the AUC(0-t) came out at 1550 ng·h/mL, the Cmax is 2780 ng/mL and the Tmax stood at 0.25 h. Besides, in data set [1], the half-life is 6.84 h, the “absorption after oral administration compared with Elafibranor (in words)” value was “good absorption”, the “blood exposure after oral administration compared with Elafibranor (in words)” value is reported as “highly effective blood exposure” and the “half-life … compared with Elafibranor (in words)” value is on record as “significantly prolonged half-life”.

As for `CSc1ccc2cc(C(=O)/C=C/c3cc(C)c(OC(C)(C)C(=O)O)c(C)c3)oc2c1` [Compound 51, (E)-2-(2,6-dimethyl-4-(3-(6-(methylthio)benzofuran-2-yl)-3-oxoprop-1-en-1-yl)phenoxy)-2-methylpropanoic acid], the concentration giving a half-maximal response (EC50) on PPARδ came out at 64.9 nM. The “increased activity for activation of PPARδ compared with Elafibranor” value at PPARδ (compared with Elafibranor) is recorded as 2 fold. In addition, in data set [1], the AUC(0-inf) came out at 479 ng·h/mL, the AUC(0-t) was 412 ng·h/mL, the Cmax came out at 484 ng/mL and the Tmax was determined as 0.25 h. In data set [1], the half-life was 12.3 h, the “absorption after oral administration compared with Elafibranor (in words)” value is recorded as “good absorption”, the “blood exposure after oral administration compared with Elafibranor (in words)” value is “highly effective blood exposure” and the “half-life … compared with Elafibranor (in words)” value is “significantly prolonged half-life”.

For `CSc1cccc2oc(C(=O)/C=C/c3cc(C)c(OC(C)(C)C(=O)O)c(C)c3)cc12` [Compound 60, (E)-2-(2,6-dimethyl-4-(3-(4-(methylthio)benzofuran-2-yl)-3-oxoprop-1-en-1-yl)phenoxy)-2-methylpropanoic acid], at PPARδ, the EC50 was determined as 614 nM.

With `CSc1ccc2c(C)c(C(=O)/C=C/c3cc(C)c(OC(C)(C)C(=O)O)c(C)c3)oc2c1` [Compound 62, (E)-2-(2,6-dimethyl-4-(3-(3-methyl-6-(methylthio)benzofuran-2-yl)-3-oxoprop-1-en-1-yl)phenoxy)-2-methylpropanoic acid], the EC50 at PPARδ amounted to 210 nM. In data set [1], the AUC(0-inf) was found to be 3150 ng·h/mL, the AUC(0-t) came to 3040 ng·h/mL, the Cmax amounted to 1830 ng/mL and the Tmax stood at 0.25 h. Further, in data set [1], the half-life is 8.87 h, the “absorption after oral administration compared with Elafibranor (in words)” value is “good absorption”, the “blood exposure after oral administration compared with Elafibranor (in words)” value is given as “highly effective blood exposure” and the “half-life … compared with Elafibranor (in words)” value was “significantly prolonged half-life”.

Take `CCc1c(C(=O)/C=C/c2cc(C)c(OC(C)(C)C(=O)O)c(C)c2)oc2cc(SC)ccc12` [Compound 63, (E)-2-(4-(3-(3-ethyl-6-(methylthio)benzofuran-2-yl)-3-oxoprop-1-en-1-yl)-2,6-dimethylphenoxy)-2-methylpropanoic acid]: the EC50 on PPARδ was 205 nM. In data set [1], the AUC(0-inf) came out at 1720 ng·h/mL, the AUC(0-t) was 1700 ng·h/mL, the Cmax stood at 812 ng/mL and the Tmax was found to be 0.25 h. Besides, in data set [1], the half-life is 4.3 h, the “absorption after oral administration compared with Elafibranor (in words)” value is on record as “good absorption”, the “blood exposure after oral administration compared with Elafibranor (in words)” value is given as “highly effective blood exposure” and the “half-life … compared with Elafibranor (in words)” value is “significantly prolonged half-life”.

Consider `CCSc1ccc2c(C)c(C(=O)/C=C/c3cc(C)c(OC(C)(C)C(=O)O)c(C)c3)oc2c1` [Compound 74, (E)-2-(4-(3-(6-(ethylthio)-3-methylbenzofuran-2-yl)-3-oxoprop-1-en-1-yl)-2,6-dimethylphenoxy)-2-methylpropanoic acid], for which, on PPARδ, the EC50 worked out at 144 nM.

As to `CSc1ccc2cc(C(=O)/C=C/c3cc(C)c(OC(C)(C)C(=O)O)c(C)c3)sc2c1` [Compound 81, (E)-2-(2,6-dimethyl-4-(3-(6-(methylthio)benzo[b]thiophen-2-yl)-3-oxoprop-1-en-1-yl)phenoxy)-2-methylpropanoic acid], the EC50 on PPARδ came to 3640 nM. Moreover, in data set [1], the AUC(0-inf) is 811 ng·h/mL, the AUC(0-t) was found to be 806 ng·h/mL, the peak level (Cmax) was 302 ng/mL and the Tmax was found to be 0.25 h. Besides, in data set [1], the half-life was 3.35 h, the “absorption after oral administration compared with Elafibranor (in words)” value was “good absorption”, the “blood exposure after oral administration compared with Elafibranor (in words)” value was “highly effective blood exposure” and the “half-life … compared with Elafibranor (in words)” value was “significantly prolonged half-life”.
